Converted amounts (≈) assume the structure as drawn.
Conditions: for aqueous solubility: pH 6.8

| MDR1-MDCK efflux ratio | intrinsic clearance, human liver microsomes [mL/min/kg] | intrinsic clearance, rat liver microsomes [mL/min/kg] | aqueous solubility [µg/mL] | fraction unbound, human plasma | fraction unbound, rat plasma | Compound |
| --- | --- | --- | --- | --- | --- | --- |
| 38.3 | ≤ 4.74 | ≤ 10.7 |  |  |  | COC(c1ccccc1)(c1ccccc1)[C@H](Oc1nc(C)cc(C)n1)C(=O)O |
| 37.3 | 45.2 | 361 | 115 (≈ 354 µM) |  |  | CCN(Cc1ccncc1)[C@@H]1CN(C(=O)c2ccccc2)C[C@H]1O |
| 0.8 | ≤ 4.74 | 122 | 55 (≈ 163 µM) |  |  | Cc1cc(Oc2ncccn2)ccc1NC(=O)c1c(C)oc(C)c1C |
| 4 | ≤ 4.74 | 16.1 |  |  |  | Cc1cc(C(=O)N(C)c2nc3ccccc3s2)cc(O)n1 |
| 6.24 | 84.8 | 108 | 56.6 (≈ 127 µM) |  |  | Cn1c(=O)n(C)c2cc(CN3CCC(c4ccc(Cc5ccccc5F)cn4)CC3)ccc21 |
| 0.149 | 82.2 | 127 | 5.16 (≈ 15.5 µM) |  |  | O=C(Nc1nc(-c2ccccn2)cs1)c1ccc(F)cc1Cl |
| 0.674 | 17.7 | 261 | 6.6 (≈ 25.2 µM) |  |  | COc1ccccc1CC(=O)Nc1ncc(C)s1 |
| 61.5 | 4.83 | 74.7 | 43.4 (≈ 124 µM) |  |  | CCc1nnc2n1CCN(C(=O)c1ccccc1Oc1cccnc1)C2 |
| 0.788 | ≤ 4.74 | ≤ 10.7 | 29 (≈ 145 µM) |  |  | CCONC(=O)c1sc(C)nc1C |
|  | ≤ 4.74 | 299 |  |  |  | Cc1nc2ccccc2n1CCNc1ncccn1 |
| 8.41 | 6.78 | 40.2 | 50.5 (≈ 148 µM) |  |  | Cc1cc(C(=O)Nc2c(C)nn(C(C)C)c2C)c2ccc(F)cc2n1 |
| 11.2 | 143 | 656 | 39.3 (≈ 119 µM) |  |  | CCc1ccc2nc(C)cc(C(=O)N3CC(c4cccnc4)C3)c2c1 |
| 5.08 | 15.7 | 245 | 42.5 (≈ 98.2 µM) |  |  | COc1ccc(NC(=O)CN2CCC(c3cc(-c4cnc(N)nc4)cc(C)n3)CC2)cc1 |
| 0.67 | 51.8 | 53.1 | 13.3 (≈ 45 µM) |  |  | CCc1ccccc1NC(=O)c1cc(C)nc2onc(C)c12 |
| 1.3 | 57.9 | 607 |  |  |  | COc1cccc(C(=O)NCC(=O)Nc2cccc3c2CCCC3)c1 |
|  |  |  | 0.17 (≈ 0.544 µM) |  |  | c1ccc(-c2nn3c(-c4ccco4)nnc3c3ccccc23)cc1 |
| 0.764 | ≤ 4.74 | 151 | 53.3 (≈ 197 µM) |  |  | Cc1ccc([C@@H]2N[C@@H](Cc3ccccc3)C(=O)N2C)o1 |
| 1.39 | 23.5 | 296 |  |  |  | COc1ccc2nc(C)nc(NCc3ncc(C)o3)c2c1 |
|  | 21.1 | 993 |  |  |  | O=[N+]([O-])c1ccc(S(=O)(=O)Nc2cccc(-c3nc4ccccc4[nH]3)c2)cc1 |
| 0.666 | 19.3 | 308 | 20.2 (≈ 65.8 µM) |  |  | Cc1ccc2nc(C)c(C(=O)NOCc3ccccc3)cc2c1 |
| 0.596 | 8.8 | 221 | 11.2 (≈ 51.4 µM) |  |  | Cc1nnnn1CCN(C)c1ccccc1 |
|  | ≤ 4.74 | ≤ 10.7 |  |  |  | CONC(=O)c1c2c(nc3ccccc13)CCC2 |
| 0.43 | 87.6 | 615 |  |  |  | O=C1c2ccccc2C(=O)N1CCNc1ccc(F)cc1 |
| 2.37 | 65.8 | 257 | 42.3 (≈ 115 µM) |  |  | O=C(Nc1cccc(-c2cnco2)c1)C1(c2cccc(F)c2)CCOCC1 |

Second part, the compound before the results:

| Compound | MDR1-MDCK efflux ratio | intrinsic clearance, human liver microsomes [mL/min/kg] | intrinsic clearance, rat liver microsomes [mL/min/kg] | aqueous solubility [µg/mL] | fraction unbound, human plasma | fraction unbound, rat plasma |
| --- | --- | --- | --- | --- | --- | --- |
| CN1CCN(C(=O)C2(NC(=O)c3ccc(C(F)(F)F)cc3)CCCC2)CC1 | 86 | ≤ 4.74 | ≤ 10.7 | 76.1 (≈ 199 µM) |  |  |
| O=C(COc1ccc(F)cc1F)N1CCNC1=O |  |  |  | 97 (≈ 379 µM) |  |  |
| O=C(NCCc1csc(N2CCCC2)n1)N1CCSCC1 | 4.26 | 61.9 | 882 | 52.6 (≈ 161 µM) |  |  |
| NC1CCCC(C(=O)Nc2ccc3[nH]ncc3c2)C1 (stereo unspecified) | 0.764 | 12.7 |  |  | 1 |  |
| O=C(CCNC(=O)c1ccc(OC(F)(F)F)cc1)N[C@@H]1CCCc2ccccc21 | 3.14 | 154 | 797 | 4.6 (≈ 11.3 µM) | 0.0336 | 0.0427 |
| Nc1nnc(-c2ccc3c(c2)OCCO3)o1 | 0.657 | ≤ 4.74 | 61.4 | 23.4 (≈ 107 µM) |  |  |
| CCN(CC)C(=O)N1CCC(C(=O)O)CC1 | 4.41 | ≤ 4.74 | ≤ 10.7 | 60.2 (≈ 264 µM) |  |  |
| Cc1cnc(CNCc2cccc3c2OCO3)s1 | 0.607 | 33 | 204 | 34.9 (≈ 133 µM) |  |  |
| CNC(=O)c1cnc(/C=C/c2csc(-c3cccs3)n2)s1 | 0.521 | 34.4 | 217 | 8.88 (≈ 26.6 µM) |  |  |
| C#CCN1CCN(Cc2nc(O)cc(C(F)(F)F)n2)CC1 |  | ≤ 4.74 | ≤ 10.7 | 42.9 (≈ 143 µM) |  |  |
| CCCc1nnc(NCc2cn3ccc(C)cc3n2)o1 | 3.5 | ≤ 4.74 | 34 | 21.9 (≈ 80.9 µM) |  |  |
| O=C(c1cn(Cc2cncn2Cc2ccc(Br)cc2)cc1-c1cccc2ccccc12)N1CCOCC1 | 22.8 | 150 | 2010 |  |  |  |
| Cc1cccc(OC[C@@]2(O)CN(C[C@]3(O)CC[C@@H](C(C)(C)C)CC3)CC[C@@H]2O)c1 | 1.33 | 234 | 1790 |  |  |  |
| COc1ccc(-c2ccc(CNc3ccc(CN4CCC(C)CC4)cc3)cc2)cc1 |  | 124 | 32.9 | 14.7 (≈ 36.7 µM) |  |  |
| Brc1ccc(-c2nnc(Cn3cnc4ccccc43)o2)o1 | 0.976 | ≤ 4.74 | 41.1 | 62.7 (≈ 182 µM) |  |  |
| CC(=O)NC[C@H]1C[C@]2(C)[C@@H](CCCC[C@]2(C)O)N1CC1(O)CCCCCC1 |  | 51.2 | 587 |  |  |  |

| Compound | MDR1-MDCK efflux ratio | intrinsic clearance, human liver microsomes [mL/min/kg] | intrinsic clearance, rat liver microsomes [mL/min/kg] | aqueous solubility [µg/mL] | fraction unbound, human plasma | fraction unbound, rat plasma |
| --- | --- | --- | --- | --- | --- | --- |
| CNc1cc(C)nc(-c2ccnc3c2ccn3C)n1 |  | 85.7 | 82.2 | 29.2 (≈ 115 µM) |  |  |
| O=C(C1CCCN(C(=O)N2CCCC2)C1)N1CCc2ccccc2C1 (stereo unspecified) |  | 87.1 | 1010 | 57.4 (≈ 168 µM) |  |  |
| Cc1ccc(CCC(=O)Nc2nccc3sccc23)o1 | 0.465 | 66.2 | 1140 |  |  |  |
| CN1N=C(SCc2ccc(Cl)cc2Cl)Sc2c1cnn(C)c2=O |  | 137 | 1890 |  |  |  |
| CN(C(=O)c1cc(N2CCNC2=O)ccc1F)C1CCNC1 (stereo unspecified) | 0.835 | ≤ 4.74 |  |  | 0.769 |  |
| Cc1cc(C)n2nc(C)c(C(=O)NCC3CC3)c2n1 | 0.725 | 46.7 | 106 |  |  |  |
| C[C@]12C=CC(=O)C=C1CC[C@@H]1[C@@H]2[C@@H](O)C[C@@]2(C)[C@H]1CC[C@]2(O)C(=O)CO | 5.44 | 25.4 | 62.9 |  |  |  |
| O=C(c1cnc(-c2ccccc2)s1)N1CCOC2(CCCC2)C1 | 0.58 | 21.4 | 774 | 39 (≈ 119 µM) |  |  |
| COC(=O)c1c(C)[nH]c(C(=O)N(C)Cc2ccc(OC)c(F)c2)c1C | 1.5 | 55 | 591 | 47.3 (≈ 136 µM) |  |  |
| CCc1nnc(Nc2cccc(C3CCCN(CC(=O)N4CCCC4)C3)n2)s1 (stereo unspecified) | 35 | 48.7 | 186 | 53.5 (≈ 134 µM) |  |  |
| Cc1ccc(-c2cc(NC(=O)CN3CCOCC3)on2)cc1 | 0.561 | ≤ 4.74 | 71 | 52.1 (≈ 173 µM) |  |  |
| O=C(CC(=O)N1CCCC1)N1CCCC1 | 2.82 | ≤ 4.74 | ≤ 10.7 | 30.7 (≈ 146 µM) |  |  |
| Cc1nc(NCc2ccc(F)cc2)n(C)n1 | 0.975 | ≤ 4.74 | ≤ 10.7 |  |  |  |
| Fc1ccc(-c2ccc3c(c2)[nH]c2ccncc23)cn1 | 0.469 | 16.8 | 162 |  | 0.045 | 0.0437 |
| CC(C)=CCOc1cccc(C(=O)NN2CCOCC2)c1 | 1.29 | ≤ 4.74 | 589 |  |  |  |
| Clc1cc2c(NC3CCCC3)nnc(-c3ccncc3)c2cc1Cl | 0.729 |  |  | 0.19 (≈ 0.529 µM) |  |  |
